Experimental data: patent US20260097037A1, “FUSED RING COMPOUND HAVING GLP-1 RECEPTOR AGONIST EFFECT” (Shionogi & Co., Ltd., priority 2022, published 2026)

Molecular target: T1, Human GLP-1 receptor stably expressing cells (hGLP-1R/CHO-K1 cells) (Homo sapiens, UniProt P43220)
T1 construct: expressed in transfected cells
Assay: Measurement of GLP-1 receptor agonist activity (cAMP assay)
Type: cell-based
Settings: for Emax: CHO-K1, maximum effect, cAMP with 2 nM human GLP-1 (7-36) = 100%, DMSO only = 0%, read-out: Emax; for EC50: increase in cAMP concentration in hGLP-1R/CHO-K1 cells, 37° C. 1 hour
Description: Test Example 1: Measurement of GLP-1 Receptor Agonist Activity
Human GLP-1 receptor stably expressing cells (hGLP-1R/CHO-K1 cells) are cultured in an a-MEM medium (Sigma) containing 10% FBS (Hyclone), 2% GlutaMAX (Gibco), 1% G418 (Nacalai Tesque), and 1% Penicillin-Streptomycin Mixed Solution (Sigma) at 37° C. under 5% CO2 conditions, and recovered by treating a 10 fold diluted 5.0 g/1-trypsin/5.3 mmol/1-EDTA solution (Nacalai Tesque) and cryopreserved.
A DMSO solution containing the compound of the present invention or human GLP-1 (7-36) (Phoenix Pharmaceuticals) is dispensed into a 384-well microplate (Greiner) at 62.5 nL/well, and in addition, 400 μM Forskolin (Nacalai Tesque) is dispensed therein at 7.5 nL/well. Subsequently, the frozen GLP-1 R/CHO-K1 cells are thawed in a thermostatic bath at 37° C., suspended in HBSS buffer (GIBCO) containing 0.1% BSA (Sigma), 20 mM HEPES, 0.1 mM IBMX (Sigma), and 0.2 mM RO20-1724 (Calbiochem) at 2×10^4 cells/mL, and the cell suspension is added at 6 μL/well. The solution was incubated at 37° C. for 1 hour and intracellular cAMP concentration is measured using cAMP Gs dynamic kit (Cisbio) according to the protocol attached to the product. Specifically, a cAMP-d2/Anti-cAMP-Cryptate (1/1) mixture solution is added in a total amount of 6 μL/well, and is incubated at room temperature for 1 hour, and then, time-resolved fluorescence is measured using PHERAstar (BMG Labtech).
Assuming that the cAMP concentration when human GLP-1 (7-36) is dispensed to a final concentration of 2 nM is 100% and the cAMP concentration when only DMSO is dispensed is 0%, the 50% effective concentration (EC50) and the maximum effect (Emax) of the compound of the present invention are calculated using an increase in the cAMP concentration as an index, using TIBCO Spotfire (TIBCO Software). The dilution concentration or the dilution solvent are changed as necessary.
The compounds of the present invention were tested essentially as described above.

T1 sequence (P43220 24-463): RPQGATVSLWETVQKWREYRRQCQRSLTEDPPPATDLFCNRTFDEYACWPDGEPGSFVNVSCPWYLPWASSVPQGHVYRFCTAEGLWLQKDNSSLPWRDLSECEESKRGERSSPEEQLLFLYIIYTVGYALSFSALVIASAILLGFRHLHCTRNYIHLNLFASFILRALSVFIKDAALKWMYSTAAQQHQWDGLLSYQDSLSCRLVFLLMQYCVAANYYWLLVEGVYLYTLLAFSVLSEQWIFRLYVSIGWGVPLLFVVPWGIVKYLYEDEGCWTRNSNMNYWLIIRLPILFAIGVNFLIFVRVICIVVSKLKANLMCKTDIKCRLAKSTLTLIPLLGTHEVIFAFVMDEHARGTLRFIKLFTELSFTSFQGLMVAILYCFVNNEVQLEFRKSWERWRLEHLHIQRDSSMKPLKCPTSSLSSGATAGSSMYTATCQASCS

SMILES	Emax [%]	EC50 [nM]
C[C@H]1c2nc(OCc3ccc(C#N)cc3F)c(Cl)cc2CCN1Cc1nc2c(F)cc(C(=O)O)cc2n1C[C@@H]1CCO1 [Compound I-086]	101	0.0685
C[C@H]1c2nc(OCc3ccc(F)cc3)c(Cl)cc2CCN1Cc1nc2c(F)cc(C(=O)O)cc2n1C[C@@H]1CCO1 [Compound I-087]	103	0.248
C[C@H]1c2nc(OCc3c(F)cc(Cl)cc3F)c(Cl)cc2CCN1Cc1nc2c(F)cc(C(=O)O)cc2n1C[C@@H]1CCO1 [Compound I-088]	103	0.0865
C[C@H]1c2nc(OCc3ccc(Cl)cc3F)c(Cl)cc2CCN1Cc1nc2c(F)cc(C(=O)O)cc2n1C[C@@H]1CCO1 [Compound I-089]	106	0.0739
C[C@H]1c2c(cc(Cl)c3c2OC(C)(c2ccc(Cl)cc2F)O3)CCN1Cc1nc2ccc(C(=O)O)cc2n1C[C@@H]1CCO1 (stereo partly shown) [Compound I-090]	98	2.05
C[C@H]1c2c(ccc3c2OC(C)(c2ccc(Cl)cc2F)O3)CCN1Cc1nc2ccc(C(=O)O)cc2n1C[C@@H]1CCO1 (stereo partly shown) [Compound I-091]	91.7	2.64
C[C@H]1c2c(cc(Cl)c3c2OC(C)(c2ccc(Cl)cn2)O3)CCN1Cc1nc2ccc(C(=O)O)cc2n1C[C@@H]1CCO1 (stereo partly shown) [Compound I-092]	108	1.58
C[C@H]1c2c(ccc3c2OC(C)(c2ccc(Cl)cn2)O3)CCN1Cc1nc2ccc(C(=O)O)cc2n1C[C@@H]1CCO1 (stereo partly shown) [Compound I-093]	96.3	6.34
C[C@H]1c2nc(NCc3ccc(Cl)cc3F)c(C(F)(F)F)cc2CCN1Cc1nc2ccc(C(=O)O)cc2n1C[C@@H]1CCO1 [Compound I-094]	103	0.256
C[C@H]1c2nc(CCc3ccc(Cl)cc3)c(C(F)(F)F)cc2CCN1Cc1nc2ccc(C(=O)O)cc2n1C[C@@H]1CCO1 [Compound I-095]	102	0.716
C[C@H]1c2nc(SCc3ccc(Cl)cc3F)c(C(F)(F)F)cc2CCN1Cc1nc2ccc(C(=O)O)cc2n1C[C@@H]1CCO1 [Compound I-096]	103	0.247
C[C@H]1c2nc(OCc3ccc(Cl)cc3F)c(C(F)F)cc2CCN1Cc1nc2ccc(C(=O)O)nc2n1C[C@@H]1CCO1 [Compound I-097]	109	0.343
Cc1ccc(COc2nc3c(cc2C(F)F)CCN(Cc2nc4ccc(C(=O)O)nc4n2C[C@@H]2CCO2)[C@H]3C)cc1 [Compound I-098]	118	1.16
C[C@H]1c2nc(OCc3ccccc3Cl)c(C(F)F)cc2CCN1Cc1nc2ccc(C(=O)O)nc2n1C[C@@H]1CCO1 [Compound I-099]	106	2.55
C[C@H]1c2nc(OCc3ccc(Cl)cc3Cl)c(C(F)F)cc2CCN1Cc1nc2ccc(C(=O)O)nc2n1C[C@@H]1CCO1 [Compound I-100]	115	0.58
C[C@H]1c2nc(OCc3c(F)cc(Cl)cc3F)c(C(F)F)cc2CCN1Cc1nc2ccc(C(=O)O)nc2n1C[C@@H]1CCO1 [Compound I-101]	108	0.469
C[C@H]1c2nc(OCc3cc(F)c(Cl)cc3F)c(C(F)F)cc2CCN1Cc1nc2ccc(C(=O)O)nc2n1C[C@@H]1CCO1 [Compound I-102]	117	0.469
C[C@H]1c2nc(OCc3ccc(C#N)cc3F)c(C(F)F)cc2CCN1Cc1nc2ccc(C(=O)O)nc2n1C[C@@H]1CCO1 [Compound I-103]	97	0.558
O=C(O)c1ccc2nc(C3CC34CCc3cc(C(F)(F)F)c(OCc5ccc(Cl)cc5F)cc3C4)n(C[C@@H]3CCO3)c2c1 (stereo partly shown) [Compound I-104]	75.3	514
C[C@H]1c2nc(OCc3ncc(Cl)cc3F)c(C(F)(F)F)cc2CCN1Cc1nc2ccc(C(=O)O)cc2n1C[C@@H]1CCO1 [Compound I-105]	110	0.314
C[C@H]1c2nc(OCc3ncc(Cl)cc3Cl)c(C(F)(F)F)cc2CCN1Cc1nc2ccc(C(=O)O)cc2n1C[C@@H]1CCO1 [Compound I-106]	112	0.371
C[C@H]1c2nc(OCc3c(F)cc(C#N)cc3F)c(C(F)(F)F)cc2CCN1Cc1nc2ccc(C(=O)O)cc2n1C[C@@H]1CCO1 [Compound I-107]	111	0.106

SMILES	Emax [%]	EC50 [nM]
C[C@H]1c2nc(OCc3ccc(Cl)cc3F)c(C(F)F)cc2CCN1Cc1nc2c(F)cc(C(=O)O)cc2n1C[C@@H]1CCO1 [Compound I-108]	111	0.038
C[C@H]1c2nc(OCc3ccc(Cl)cc3)c(C(F)F)cc2CCN1Cc1nc2c(F)cc(C(=O)O)cc2n1C[C@@H]1CCO1 [Compound I-109]	112	0.101
C[C@H]1c2nc(OCc3ccc(F)cc3F)c(C(F)F)cc2CCN1Cc1nc2c(F)cc(C(=O)O)cc2n1C[C@@H]1CCO1 [Compound I-110]	113	0.0706
C[C@H]1c2nc(OCc3ccc(Cl)cc3Cl)c(C(F)F)cc2CCN1Cc1nc2c(F)cc(C(=O)O)cc2n1C[C@@H]1CCO1 [Compound I-111]	110	0.0683
C[C@H]1c2nc(OCc3ccc(Cl)cn3)c(C(F)F)cc2CCN1Cc1nc2c(F)cc(C(=O)O)cc2n1C[C@@H]1CCO1 [Compound I-112]	110	0.191
C[C@H]1c2nc(OCc3c(F)cc(Cl)cc3F)c(C(F)F)cc2CCN1Cc1nc2c(F)cc(C(=O)O)cc2n1C[C@@H]1CCO1 [Compound I-113]	116	0.0331
C[C@H]1c2nc(OCc3cc(F)c(Cl)cc3F)c(C(F)F)cc2CCN1Cc1nc2c(F)cc(C(=O)O)cc2n1C[C@@H]1CCO1 [Compound I-114]	113	0.0604
C[C@H]1c2nc(OCc3ccc(C#N)cc3F)c(C(F)F)cc2CCN1Cc1nc2c(F)cc(C(=O)O)cc2n1C[C@@H]1CCO1 [Compound I-115]	113	0.043
C[C@H]1c2nc(OCc3ccc(Cl)cc3F)c(C(F)F)cc2CCN1Cc1nc2ccc(C(=O)O)c(F)c2n1C[C@@H]1CCO1 [Compound I-116]	122	0.0463
C[C@H]1c2nc(OCc3ccc(F)cc3)c(C(F)F)cc2CCN1Cc1nc2ccc(C(=O)O)c(F)c2n1C[C@@H]1CCO1 [Compound I-117]	118	0.372
C[C@H]1c2nc(OCc3ccc(Cl)cc3)c(C(F)F)cc2CCN1Cc1nc2ccc(C(=O)O)c(F)c2n1C[C@@H]1CCO1 [Compound I-118]	113	0.105
Cc1ccc(COc2nc3c(cc2C(F)F)CCN(Cc2nc4ccc(C(=O)O)c(F)c4n2C[C@@H]2CCO2)[C@H]3C)cc1 [Compound I-119]	120	0.148
C[C@H]1c2nc(OCc3ccccc3Cl)c(C(F)F)cc2CCN1Cc1nc2ccc(C(=O)O)c(F)c2n1C[C@@H]1CCO1 [Compound I-120]	121	0.481
C[C@H]1c2nc(OCc3ccc(F)cc3F)c(C(F)F)cc2CCN1Cc1nc2ccc(C(=O)O)c(F)c2n1C[C@@H]1CCO1 [Compound I-121]	119	0.148
C[C@H]1c2nc(OCc3ccc(Cl)cc3Cl)c(C(F)F)cc2CCN1Cc1nc2ccc(C(=O)O)c(F)c2n1C[C@@H]1CCO1 [Compound I-122]	112	0.073
C[C@H]1c2nc(OCc3ccc(Cl)cn3)c(C(F)F)cc2CCN1Cc1nc2ccc(C(=O)O)c(F)c2n1C[C@@H]1CCO1 [Compound I-123]	127	0.275
C[C@H]1c2nc(OCc3c(F)cc(Cl)cc3F)c(C(F)F)cc2CCN1Cc1nc2ccc(C(=O)O)c(F)c2n1C[C@@H]1CCO1 [Compound I-124]	115	0.038
C[C@H]1c2nc(OCc3c(F)cc(F)cc3F)c(C(F)F)cc2CCN1Cc1nc2ccc(C(=O)O)c(F)c2n1C[C@@H]1CCO1 [Compound I-125]	123	0.0856
C[C@H]1c2nc(OCc3cc(F)c(Cl)cc3F)c(C(F)F)cc2CCN1Cc1nc2ccc(C(=O)O)c(F)c2n1C[C@@H]1CCO1 [Compound I-126]	111	0.0635
C[C@H]1c2nc(OCc3ccc(C#N)cc3F)c(C(F)F)cc2CCN1Cc1nc2ccc(C(=O)O)c(F)c2n1C[C@@H]1CCO1 [Compound I-127]	121	0.104
COc1cc(C(=O)O)cc2c1nc(CN1CCc3cc(C(F)F)c(OCc4ccc(Cl)cc4F)nc3[C@@H]1C)n2C[C@@H]1CCO1 [Compound I-128]	128	0.0122
COc1cc(C(=O)O)cc2c1nc(CN1CCc3cc(C(F)F)c(OCc4ccc(Cl)cc4)nc3[C@@H]1C)n2C[C@@H]1CCO1 [Compound I-129]	131	0.0303
